The compounds below were run against T1, Human CaV2.2 channels (Homo sapiens, UniProt Q00975) (assay: Fluorescent assay for CaV2.2 channels using potassium depolarization to induce channel opening (FLIPR, Fluo-4)). Conditions: 3 μM test compound, 30 mM KCl, HEK293 cells stably expressing human CaV2.2; read-out: %-Inhib (CaV2.2) @3 μM @30 mM KCl.
T1 construct: expressed in transfected cells
T1 sequence (Q00975 whole entry): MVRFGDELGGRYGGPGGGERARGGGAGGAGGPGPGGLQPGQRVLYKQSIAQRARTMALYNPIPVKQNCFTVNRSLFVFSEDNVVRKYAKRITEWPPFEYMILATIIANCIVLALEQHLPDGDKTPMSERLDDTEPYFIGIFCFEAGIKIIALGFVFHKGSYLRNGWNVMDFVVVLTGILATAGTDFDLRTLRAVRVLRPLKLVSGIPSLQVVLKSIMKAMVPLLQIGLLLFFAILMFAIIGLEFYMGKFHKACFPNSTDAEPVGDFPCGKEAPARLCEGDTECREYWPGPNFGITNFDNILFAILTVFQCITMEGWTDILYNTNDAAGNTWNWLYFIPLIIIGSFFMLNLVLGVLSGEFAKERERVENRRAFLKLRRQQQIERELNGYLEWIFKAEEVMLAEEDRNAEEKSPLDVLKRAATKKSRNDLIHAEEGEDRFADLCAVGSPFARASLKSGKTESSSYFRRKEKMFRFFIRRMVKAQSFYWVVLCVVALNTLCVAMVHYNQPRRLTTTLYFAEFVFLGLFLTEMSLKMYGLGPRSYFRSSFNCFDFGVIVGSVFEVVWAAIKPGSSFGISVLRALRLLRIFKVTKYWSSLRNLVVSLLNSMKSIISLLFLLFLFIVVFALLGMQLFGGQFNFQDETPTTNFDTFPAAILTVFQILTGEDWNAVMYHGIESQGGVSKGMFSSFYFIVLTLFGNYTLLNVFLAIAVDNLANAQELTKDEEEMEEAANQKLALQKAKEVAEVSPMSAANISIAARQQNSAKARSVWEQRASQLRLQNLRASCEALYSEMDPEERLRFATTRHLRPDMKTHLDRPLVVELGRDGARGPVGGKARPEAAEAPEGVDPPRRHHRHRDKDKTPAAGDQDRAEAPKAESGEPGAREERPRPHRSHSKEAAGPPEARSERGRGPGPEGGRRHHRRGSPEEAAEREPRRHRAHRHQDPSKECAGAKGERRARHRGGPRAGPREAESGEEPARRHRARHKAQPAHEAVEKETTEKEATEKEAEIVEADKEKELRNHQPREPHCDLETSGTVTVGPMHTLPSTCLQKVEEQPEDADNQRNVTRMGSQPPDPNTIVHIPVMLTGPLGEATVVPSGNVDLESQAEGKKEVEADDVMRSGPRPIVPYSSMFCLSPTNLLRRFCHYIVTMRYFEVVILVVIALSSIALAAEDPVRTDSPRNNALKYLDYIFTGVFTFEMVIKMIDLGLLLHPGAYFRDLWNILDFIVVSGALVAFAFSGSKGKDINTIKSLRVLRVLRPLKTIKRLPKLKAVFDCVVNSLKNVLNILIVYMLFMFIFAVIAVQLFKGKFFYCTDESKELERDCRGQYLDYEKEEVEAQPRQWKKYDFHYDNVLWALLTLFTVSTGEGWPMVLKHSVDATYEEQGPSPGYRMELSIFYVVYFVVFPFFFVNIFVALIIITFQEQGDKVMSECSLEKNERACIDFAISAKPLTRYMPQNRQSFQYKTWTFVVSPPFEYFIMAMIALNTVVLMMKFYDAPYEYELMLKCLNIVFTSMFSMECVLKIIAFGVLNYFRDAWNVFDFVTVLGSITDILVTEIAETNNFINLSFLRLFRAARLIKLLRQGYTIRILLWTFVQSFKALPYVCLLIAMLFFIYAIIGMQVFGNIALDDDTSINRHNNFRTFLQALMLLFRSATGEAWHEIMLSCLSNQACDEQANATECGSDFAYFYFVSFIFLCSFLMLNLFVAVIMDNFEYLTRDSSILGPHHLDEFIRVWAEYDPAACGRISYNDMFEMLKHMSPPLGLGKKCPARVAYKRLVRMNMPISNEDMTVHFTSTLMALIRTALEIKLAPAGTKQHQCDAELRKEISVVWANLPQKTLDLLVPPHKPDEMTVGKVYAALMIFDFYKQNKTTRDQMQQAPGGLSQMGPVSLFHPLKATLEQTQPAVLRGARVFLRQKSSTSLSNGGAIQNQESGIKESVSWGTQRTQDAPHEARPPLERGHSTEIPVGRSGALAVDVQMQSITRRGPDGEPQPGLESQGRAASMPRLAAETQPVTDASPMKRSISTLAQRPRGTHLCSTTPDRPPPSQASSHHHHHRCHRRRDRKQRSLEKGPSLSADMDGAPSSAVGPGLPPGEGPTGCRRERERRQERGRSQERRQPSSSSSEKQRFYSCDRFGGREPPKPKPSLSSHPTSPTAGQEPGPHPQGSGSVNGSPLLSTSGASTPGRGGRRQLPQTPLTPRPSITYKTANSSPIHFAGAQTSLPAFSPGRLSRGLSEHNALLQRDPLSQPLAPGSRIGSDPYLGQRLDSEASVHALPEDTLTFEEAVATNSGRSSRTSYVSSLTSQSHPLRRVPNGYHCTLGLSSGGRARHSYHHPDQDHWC
T1 sequence (P54289 25-1103, further chain): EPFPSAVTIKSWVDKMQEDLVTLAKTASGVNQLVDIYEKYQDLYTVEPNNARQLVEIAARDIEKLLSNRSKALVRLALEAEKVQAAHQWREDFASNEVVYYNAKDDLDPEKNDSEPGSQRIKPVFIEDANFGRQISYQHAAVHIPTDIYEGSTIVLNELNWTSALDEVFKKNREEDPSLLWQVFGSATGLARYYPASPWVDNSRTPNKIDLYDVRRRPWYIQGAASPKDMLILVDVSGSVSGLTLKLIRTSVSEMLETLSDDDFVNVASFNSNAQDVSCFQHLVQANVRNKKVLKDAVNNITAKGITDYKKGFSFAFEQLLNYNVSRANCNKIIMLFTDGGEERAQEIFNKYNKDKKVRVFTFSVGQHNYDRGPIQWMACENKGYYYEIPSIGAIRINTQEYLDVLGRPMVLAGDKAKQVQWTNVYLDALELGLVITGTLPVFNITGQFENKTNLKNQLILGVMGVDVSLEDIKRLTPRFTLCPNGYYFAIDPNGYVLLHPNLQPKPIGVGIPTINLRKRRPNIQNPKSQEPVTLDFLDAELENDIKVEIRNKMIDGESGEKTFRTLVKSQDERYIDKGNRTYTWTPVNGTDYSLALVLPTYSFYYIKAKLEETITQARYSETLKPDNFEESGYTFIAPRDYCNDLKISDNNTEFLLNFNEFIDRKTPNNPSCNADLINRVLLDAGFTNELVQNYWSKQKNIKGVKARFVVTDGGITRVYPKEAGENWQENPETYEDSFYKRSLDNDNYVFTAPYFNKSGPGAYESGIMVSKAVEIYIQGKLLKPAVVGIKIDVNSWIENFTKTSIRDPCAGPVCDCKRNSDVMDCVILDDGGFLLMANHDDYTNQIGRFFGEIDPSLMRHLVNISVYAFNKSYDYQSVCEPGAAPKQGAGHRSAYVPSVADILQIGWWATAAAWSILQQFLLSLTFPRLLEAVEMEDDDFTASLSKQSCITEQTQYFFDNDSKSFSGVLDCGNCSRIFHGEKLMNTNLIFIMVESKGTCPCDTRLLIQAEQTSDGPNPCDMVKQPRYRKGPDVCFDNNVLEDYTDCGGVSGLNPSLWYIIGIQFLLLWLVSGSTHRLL
T1 sequence (P54284 whole entry, further chain): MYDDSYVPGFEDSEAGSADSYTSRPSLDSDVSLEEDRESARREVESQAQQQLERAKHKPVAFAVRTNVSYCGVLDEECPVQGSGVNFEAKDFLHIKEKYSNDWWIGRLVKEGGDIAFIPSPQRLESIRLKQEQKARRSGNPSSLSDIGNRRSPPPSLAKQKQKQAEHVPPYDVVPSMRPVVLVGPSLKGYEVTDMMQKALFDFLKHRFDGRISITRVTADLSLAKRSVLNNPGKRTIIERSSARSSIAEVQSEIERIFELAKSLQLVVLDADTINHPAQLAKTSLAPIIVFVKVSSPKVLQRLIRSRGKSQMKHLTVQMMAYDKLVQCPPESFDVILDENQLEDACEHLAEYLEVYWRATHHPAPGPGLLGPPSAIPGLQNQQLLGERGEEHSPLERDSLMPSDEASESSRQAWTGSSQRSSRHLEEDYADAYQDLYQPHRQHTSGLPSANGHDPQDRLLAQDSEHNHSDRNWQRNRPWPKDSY
Format: cell-based
Description: In the process, the Ca^2+ influx is quantified in the FLIPR assay with the aid of a Ca^2+-sensitive dye (type Fluo-4, Molecular Probes Europe BV, Leiden, the Netherlands) in a fluorescent imaging plate reader (FLIPR 3, Molecular Devices, Sunnyvale, USA), as described hereinafter.
2.1 Fluorescent Assay for CaV2.2 Channels Using Potassium Depolarization to Induce Channel Opening
Human CaV2.2 channels were stably expressed in HEK293 cells together with alpha2-delta and beta subunits of voltage gated calcium channels. In addition, an inwardly rectifying potassium channel (Kir2.3) was stably expressed in these cells to augment control of the cell membrane potential by the concentration of extracellular potassium ions. Raise of the extracellular potassium concentration leads to depolarization of the membrane potential and thus regulates the voltage dependent state of CaV2.2 channels. For preparation, cells were seeded in black poly-D-lysine coated 96-well plates (Becton Dickinson, Biocoat 4640) in 100 μl medium [500 ml DMEM/F-12 plus Glutamax (Invitrogen 31331-093) plus 5.5 ml MEM NEAA 100× (Invitrogen 11140-035) plus 50 ml FBS decomplemented (Invitrogen 10270-106) plus 4.4 ml Geneticin (Invitrogen 10131-027) plus 1.1 ml Hygromycin B (Invitrogen 10687-010) plus 68.75 μl Puromycin (Clontech, 631306)] at a cell density of 45.000 cells per well.
Plates were incubated at 37° C. (5% CO2) for 20 to 23 hours. On the day of experiment medium was discarded and cells were loaded with Fluo 4 by addition of 100 μl of basic assay buffer (10 mM HEPES, 30 mM KCl, 120 mM NaCl, 0.8 mM CaCl2, 1.7 mM MgCl2, 10 mM Glucose, 0.1% BSA. pH 7.4) containing 2 μM Fluo 4 (Molecular Probes; F-14201), 0.01% pluronic acid (Molecular Probes; P-6866) and 2.5 mM probenecid (Molecular Probes; P36400). Cells were incubated in the dark at 25° C. for 60 min. Then the dye containing buffer was discarded and 100 μl basic assay buffer was added. Subsequently cells were incubated in the dark at 25° C. for 15 min. 25 μl of basic assay buffer with or without test compound were added and cells were incubated again in the dark at 25° C. for 15 min. Fluorescence intensity was measured on a FLIPR 3 instrument (Molecular Devices Corp., Sunnyvale, Calif.) with excitation at 480 nm and emission at 535 nm. After continuously reading fluorescence for 30 sec, 50 μl of basic assay buffer containing 210 mM KCl (NaCl omitted) were added for depolarization. Peak fluorescent signal intensity was determined and the amplitude of the peak signal, normalized to base line, was used to measure channel inhibition by test compounds.
In the case of `Cc1c(-c2ccc(Cl)cc2)c(C(=O)N(C)CC(C)(C)C)n(Cc2cccc(Cl)c2)c1C(F)(F)F` [SC-53, 3-(4-Chlorophenyl)-1-[(3-chlorophenyl)-methyl]-N-(2,2-dimethyl-propyl)-N,4-dimethyl-5-(trifluoromethyl)-1H-pyrrole-2-carboxylic acid amide], the inhibition at 3 µM is reported as 75 to 95%. `Cc1c(-c2ccc(Cl)cc2)c(C(=O)N(C)CC(C)(C)O)n(Cc2ccccc2)c1C(F)(F)F` [SC-54, 1-Benzyl-3-(4-chlorophenyl)-N-(2-hydroxy-2-methyl-propyl)-N,4-dimethyl-5-(trifluoromethyl)-1H-pyrrole-2-carboxylic acid amide] showed an inhibition at 3 µM of over 95%. In the case of `Cc1c(-c2ccc(Cl)cc2)c(C(=O)N2CCNC(=O)C2)n(Cc2cccc(Cl)c2)c1C(F)(F)F` [SC-55, 4-[3-(4-Chlorophenyl)-1-[(3-chlorophenyl)-methyl]-4-methyl-5-(trifluoromethyl)-1H-pyrrole-2-carbonyl]-piperazin-2-one], the inhibition at 3 µM is reported as over 95%. With `Cc1c(-c2ccc(Cl)cc2)c(C(=O)N(C)CCS(C)(=O)=O)n(Cc2cccc(Cl)c2)c1C(F)(F)F` [SC-56, 3-(4-Chlorophenyl)-1-[(3-chlorophenyl)-methyl]-N,4-dimethyl-N-(2-methylsulfonyl-ethyl)-5-(trifluoromethyl)-1H-pyrrole-2-carboxylic acid amide] the inhibition at 3 µM was over 95%. In the case of `Cc1c(-c2ccc(Cl)cc2)c(C(=O)N(C)CC(C)(C)O)n(Cc2cccc(Cl)c2)c1C(F)(F)F` [SC-57, 3-(4-Chlorophenyl)-1-[(3-chlorophenyl)-methyl]-N-(2-hydroxy-2-methyl-propyl)-N,4-dimethyl-5-(trifluoromethyl)-1H-pyrrole-2-carboxylic acid amide], the inhibition at 3 µM is reported as over 95%. `Cc1c(-c2ccc(Cl)cc2F)c(C(=O)N(C)CC(C)(C)O)n(Cc2ccccc2)c1C(F)(F)F` [SC-58, 1-Benzyl-3-(4-chloro-2-fluoro-phenyl)-N-(2-hydroxy-2-methyl-propyl)-N,4-dimethyl-5-(trifluoromethyl)-1H-pyrrole-2-carboxylic acid amide] showed an inhibition at 3 µM of over 95%. `Cc1c(-c2ccc(Cl)cc2F)c(C(=O)N(C)CC(C)(C)C)n(Cc2ccccc2)c1C(F)(F)F` [SC-59, 1-Benzyl-3-(4-chloro-2-fluoro-phenyl)-N-(2,2-dimethyl-propyl)-N,4-dimethyl-5-(trifluoromethyl)-1H-pyrrole-2-carboxylic acid amide] showed an inhibition at 3 µM of over 95%. `Cc1c(-c2ccc(Cl)cc2)c(C(=O)N(C)CC2(C)COC2)n(Cc2ccccc2)c1C(F)(F)F` [SC-60, 1-Benzyl-3-(4-chlorophenyl)-N,4-dimethyl-N-[(3-methyl-oxetan-3-yl)-methyl]-5-(trifluoromethyl)-1H-pyrrole-2-carboxylic acid amide] gave an inhibition at 3 µM of over 95%. Work on `Cc1c(-c2ccc(Cl)cc2F)c(C(=O)N2CCNC(=O)C2)n(Cc2ccccc2)c1C(F)(F)F` [SC-61, 4-[1-Benzyl-3-(4-chloro-2-fluoro-phenyl)-4-methyl-5-(trifluoromethyl)-1H-pyrrole-2-carbonyl]-piperazin-2-one] yielded an inhibition at 3 µM of over 95%. For `Cc1c(-c2ccc(Cl)cc2F)c(C(=O)N2CCOCC2)n(Cc2ccccc2)c1C(F)(F)F` [SC-62, [1-Benzyl-3-(4-chloro-2-fluoro-phenyl)-4-methyl-5-(trifluoromethyl)-1H-pyrrol-2-yl]-morpholin-4-yl-methanone], the inhibition at 3 µM was over 95%. `Cc1c(-c2ccc(Cl)cc2)c(C(=O)N(C)C2CCS(=O)(=O)C2)n(Cc2ccccc2)c1C(F)(F)F` (stereo not drawn) [SC-63, 1-Benzyl-3-(4-chlorophenyl)-N-(1,1-dioxo-thiolan-3-yl)-N,4-dimethyl-5-(trifluoromethyl)-1H-pyrrole-2-carboxylic acid amide] was tested, and the inhibition at 3 µM was over 95%. For `Cc1c(-c2ccc(Cl)cc2F)c(C(=O)N(C)CCS(C)(=O)=O)n(Cc2ccccc2)c1C(F)(F)F` [SC-64, 1-Benzyl-3-(4-chloro-2-fluoro-phenyl)-N,4-dimethyl-N-(2-methylsulfonyl-ethyl)-5-(trifluoromethyl)-1H-pyrrole-2-carboxylic acid amide], the inhibition at 3 µM was over 95%.

— patent publication US9302988B2, “Fluoromethyl-substituted pyrrole carboxamides” (GRÜNENTHAL GMBH, priority 2012, dated 2016)
